Experimental data from patent US6974791B2, “Endothelial specific targeting” (The University of Pittsburgh, priority 2000, dated 2005).
Entries after “also recorded” stand apart in the source; their conditions may differ. Where no end group is shown, it is not given here.

Tests used:
[1] = system: vessels in human xenograft PC-3 (prostate carcinoma) tumors; assay: in vivo binding of intravenously injected peptide in PC-3 tumor-bearing mice (fluorescence microscopy of frozen sections); set-up: species or system mouse; settings: for binding to vessels in the tumors (tumor cross-sections): five i.v. (tail vein) injections of 1 ng/mouse at one hour intervals
Method: (§1) Additionally, in vivo experiments with the prototype peptide, SEQ ID NO 3, which stained the brightest in the in vitro experiments described above, were conducted using several different assays as described below. In one in vivo assay, tumor-bearing mice were injected five times intravenously (tail vein) with 1 ng/mouse at one hour intervals. The mice were sacrificed 15 minutes after the final injection, the tumors and other normal tissues (lung, heart, muscle) were taken for fresh frozen sectioning (i.e., embedded in OCT medium and frozen) and for evaluation via fluorescence microscopy. […] Although these peptides were generated from TDEC originating from the murine SCC tumor, SEQ ID NO 3 also bound to the endothelium from a human xenograft model.
The specificity of SEQ ID NO 3 for endothelial vessels is illustrated in FIG. 7. In this experiment, PC-3 tumor-bearing mice were injected (as described above) with positive control poly-L-lysine, negative control SEQ ID NO 8 Pen G7 and peptide SEQ ID NO 3. FIG. 7A, 7B and 7C are micrographs illustrating cross-sections of PC-3 tumor from tumor-bearing mice that were injected with peptides. In each figure, the gray diamond indicates the location of the lumen of the blood vessel.

[2] = system: tumor-derived endothelial cells (TDEC); assay: in vitro binding of FITC-conjugated peptides to TDEC monolayers (fluorescent microscopy), NIH3T3 as negative control monolayer; type: cell-based, mouse; settings: peptide 5 μg/ml overnight at 37° C. in PBS with 10% FCS; TDEC vs NIH3T3 monolayers
Method: Tumors were established by subcutaneous injection of 5×10^6 SCC VII cells per C3H/HeJ mouse. After a tumor had achieved a diameter of 0.5 cm to 1.0 cm and before any evidence of central necrosis, it was removed sterilely, minced, and digested with collagenases and RNAses to yield a single cell suspension. The cells were then stained using antibody for PECAM-1. The stained cells were sorted using automated flow cytometry and the positive cells were cultured as TDECs in Po Media [DMEM supplemented with 20% Sarcoma-180 conditioned media, 10% Fetal Calf Serum, 1% BME vitamin, 1% heparin, and 0.005% endothelial cell growth supplement (Collaborative Research)].
Evidence for specific binding of oligopeptides to TDEC was accomplished as follows. The most frequently repetitive sequences obtained from the 100 clones were used for synthesis of oligopeptides (Sigma Genesis). By conjugating fluorescein isothiocynate ([…]) to the carboxyl termini of peptides, these molecules were tested for in vitro binding with TDECs and NIH3T3 cells (negative control cell line). These peptides contained flanking cysteines so that a disulfide loop may be reformed, thus constraining and mimicking the binding condition of the initial selection process. […]

[3] = system: vessels in murine SCC (squamous cell) tumors; assay: in vivo binding of intravenously injected peptide in tumor-bearing mice, murine SCC tumor model (fluorescence microscopy of frozen sections); set-up: species or system mouse
Method: as §1

[4] = system: human soft tissue sarcoma and prostate carcinoma tumor sections (endothelium); assay: triple staining of fresh frozen human tumor sections with FITC-tagged peptide, anti-Factor VIII antibody and nuclear stain; type: binding; settings: fresh frozen sections snap fixed in paraformaldehyde
Method: The ability of novel peptide motifs of the present invention to cross-react with tissues from different sources was tested using human samples from a pathologist-diagnosed soft tissue sarcoma and a prostate carcinoma. Fresh frozen tumor sections were snap fixed in paraformaldehyde, and then triple stained for fluorescence microscopic analysis, the results of which are shown in FIG. 8. The staining included: a stain for cell nuclei, and anti-Factor VIII antibody (secondary antibody labeled with Cy3 red fluorescent probe), and peptide SEQ ID NO 3 (tagged with FITC, green upon fluorescence). […] Factor VIII staining is specific for endothelial cells which produce and store the Factor VIII blood factor.

Substance	binding to vessels in the tumors (tumor cross-sections) [1]	staining / binding specificity of FITC-labeled peptide for TDEC [2]	binding to vessels of normal tissues ([3]; murine SCC tumor-bearing mice, lung, heart, muscle, five i.v. injections of 1 ng/mouse)	binding to vessels in the tumors ([3]; murine SCC tumor, five i.v. (tail vein) injections of 1 ng/mouse at one hour intervals, sacrifice 15 minutes after final injection)	distribution of staining in PC-3 tumor cross-section ([1]; after i.v. injection, FIG. 7C)	binding to vessels of normal tissues ([1]; lung, heart, muscle, five i.v. injections of 1 ng/mouse)	staining of human tumor sections relative to Factor VIII-positive (vascularized) regions [4]
CGGGGGGGC (cysteine pairing not given here) [SEQ ID NO 8 Pep G7, negative control peptide, seven glycine residues flanked by cysteines, reference compound]	no binding activity						
CGGRKLGGC (cysteine pairing not given here) [SEQ ID NO 2]		preferential staining for TDEC; also recorded: some binding specificity to TDEC					
CGGRRLGGC (cysteine pairing not given here) [SEQ ID NO 3]	preferential binding; also recorded: intense binding to the cells of the vessel	brightest staining and specificity for TDEC; also recorded: highest in vitro binding specificity to TDEC	no binding to the vessels of normal tissues	preferential binding	limited to the blood vessel wall	no binding to the vessels of normal tissues	observed primarily in the regions of the tissue that were vascularized
poly-L-lysine [reference compound]	not only bound to the cells of the blood vessel, but also diffused through the intercellular space						
